# Legend:
# PDGF-R = experiment: PDGF-BB-stimulated PDGF-R autophosphorylation, C6 cells, western blot; type: cell-based, rat; set-up: PDGF stimulated receptor phosphorylation: dose or concentration left out as unconfirmed
# Description: For western blotting, cells were plated in 2 mL growth medium into 6-well dishes (500,000 cells per well) and allowed to attach overnight. The medium was replaced with 2 mL MCDB 105 (UCSF Cell Culture Facility) supplemented with 1% FBS. The plates were then incubated overnight at 37° C., ambient CO2. […] After a 7 min incubation at room temperature with ligand, the plates were put on ice and washed three times with 1 mL ice-cold PBS plus 1 mM orthovanadate. Lysis was achieved by pipetting cells in 0.5 mL of buffer containing 50 mM Tris, pH 7.4, 10% glycerol, 1% NP-40, 2 mM EDTA, 1 mM sodium vanadate (Na3 VO4), 10 mM pyrophosphate, 1 mM PMSF, 10 mg/mL aprotinin, 10 mg/mL leupeptin. […] The integrity of the protein-to-membrane transfer was determined by staining with 1% Ponceau S in 5% acetic acid for 5 min. […] Phosphotyresine was detected by incubating the membrane (1 hr at room temperature) with an anti-phosphotyosine antiserum diluted in blocking buffer at 1:3000. […]
# Proteins were then separated by SDS-polyacrylamide gel electrophoresis (PAGE). […] The level of phosphorylated tyrosine was determined by quantitating the amount of bound anti-phosphotyrosine. Quantitation was carried out by peak area integration using a Molecular Dynamics Computing Densitometer (Model 300S), and Image Quant v3.0 software (Molecule Dynamics). […]
# [1] = in vivo
# Description: Many cancer therapeutics are cytotoxic in nature and have profound effects on blood cells resulting in cytopenia.
# EGF receptor = EGF receptor autophosphorylation, T98G glioblastoma cells; type: cell-based, human; conditions: 200, 500; 50 ng/ml EGF
# Description: Proteins were then separated by SDS-polyacrylamide gel electrophoresis (PAGE). Proteins containing phosphorylated tyrosine were identified by western blotting with an anti-phosphotyrosine antibody. The level of phosphorylated tyrosine was determined by quantitating the amount of bound anti-phosphotyrosine. Quantitation was carried out by peak area integration using a Molecular Dynamics Computing Densitometer (Model 300S), and Image Quant v3.0 software (Molecule Dynamics). Data were expressed as relative peak.intensity (phosphorylation of a receptor divided by the total amount of phosphorylated tyrosine).
# T98G cells were plated in MCDB105 medium containing 2% FBS and incubated for 24 hours at 37° C. […] The cells were then treated with ligand for 10 minutes (20 ng/ml PDGF-BB or 50 ng/ml EGF). The cells were lysed and the level of phosphorylated receptor was quantitated as described in Example 1.
# physchem = experiment: physchem
# Description: PBTE consists of a solution of 3% w/v benzyl alcohol, 8% w/v polysorbate 80, and 65% w/v polyethylene glycol (MW=300 daltons) in absolute ethanol. PBTE:D5W consists of PBTE diluted 1:1 in a solution of 5% dextrose in water. […] The solubility of the other compounds described herein can be obtained using standard techniques.
# SKOV3T cells = experiment: Survival, IP SKOV3T xenograft in BALB/c nu/nu mice; type: in vivo, human; conditions: 15 mg/kg/day IP in DMSO
# Description: Cell lines were grown in the appropriate media as described in Appendix 1. Cells were harvested and washed in sterile PBS or medium without FBS, resuspended to a suitable concentration, and injected into the IP cavity of […] of the appropriate strain. Prior to implantation of 7TD1 cells, C57BL/6 mice were primed by IP injection of 0.5 mL Pristane. SKOV3T cells were implanted into athymic mice without Pristane priming. Mice were observed daily for the occurrence of ascites formation. Individual animals were sacrificed when they presented with a weight gain of 40%, or when the IP tumor burden began to cause undue stress and pain to the animal.
# In one experiment, SKOV3T cells (2×10^6 cells) were implanted into the IP cavity of BALB/c, nu/nu mice.
# C6 cells = experiment: Intracerebral C6 tumor, athymic mice, survival; type: in vivo, rat; conditions: IC C6, athymic mice
# Description: FIG. 4. In two separate experiments, C6 cells (1×10^5 cells in 4 μL) were implanted into the cerebrum of BALB/c, nu/nu mice. […] V=vehicle control. n=8 to 12 (Expt #1), or 5 (Expt #2) animals per group. * P<0.00001; ** P<0.002; *** P<0.02 compared to vehicle control.
# For the mouse IC model, rat C6 glioma cells were harvested and suspended in sterile PBS at a concentration of 2.5×10^7 cells/mL and placed on ice. Cells were implanted into BALB/c, nu/nu mice in the following manner: the frontoparietal scalps of mice were shaved with animal clippers if necessary before swabbing with 70% ethanol. Animals were anesthetized with isofluorane and the needle was inserted through the skull into the left hemisphere of the brain. Cells were dispensed from Hamilton Gas-tight Syringes using 30 gauge 1/2 inch needles fitted with sleeves that allowed only a 3 mm penetration. A repeater dispenser was used for accurate delivery of 4 μL of cell suspension.
smiles,measurement,setting,value
"Cc1oncc1C(=O)Nc1ccc(C(F)(F)F)cc1 [Compound A10, 5-methylisoxazole-4 carboxylic acid-(4-trifluromethyl)-anilide]",reduction of PDGF-R phosphorylation,"PDGF-R; 200 mM A10, 20 ng/ml PDGF-BB",reduced PDGF-R phosphorylation below that occurring in the absence of PDGF-BB stimulation
same,PDGF stimulated receptor phosphorylation,"PDGF-R; increasing concentrations (50, 100)",reduced PDGF stimulated receptor phosphorylation
same,effects on blood cell,[1],No effects on blood cell were observed
same,EGF stimulated autophosphorylation of EGF-R,EGF receptor,little if any effect on the ability of EGF to stimulate autophosphorylation of EGF-R
same,solubility,"physchem; pbte, organic solvent or mixture",~60 mg/mL
same,solubility,physchem; pbte:d5w,~5 mg/mL
same,solubility in water,physchem; water,not very soluble in water
same,survival,SKOV3T cells,significantly increase the survival
same,animals alive,SKOV3T cells; after 32 days,40%
same,animals died,SKOV3T cells; by 28 days,one of A10 treated animals died by 28 days
same,average survival time,C6 cells,significantly increased compared to controls

# From US6331555A, “Treatment of platelet derived growth factor related disorders such as cancers” (priority 1999, dated 2001)
